Results on two substances are retold here after patent US7666437B2, “Intranasal vaccine for use against disease caused by enterotoxigenic Escherichia coli” (Universidad Nacional Autonoma de Mexico, priority 2005, dated 2010).

The test system of one data set is strain H10407 of ETEC. On the set-up: species or system enterotoxigenic Escherichia coli. The note with it: in vivo.
The test system of a further data set is T CD4+ lymphocytes. On the set-up: species or system BALB/c mice. The following applies: mouse, in vivo.
Another data set has as its system T CD8+ lymphocytes. On the set-up: species or system BALB/c mice. The following applies: mouse, in vivo.
The next data set relates to IL-4. Also on record: species or system BALB/c mice. The following applies: mouse, in vivo.
A further data set has as its system IL-10. Also on record: species or system BALB/c mice. The following applies: mouse, in vivo.
Data set [1] deals with children's sera after natural infection. The format is binding.
A short description of a further data set: Dynamic light scattering. Format: physicochemical. The note with it: 1 mg/ml in 10 mm PBS pH 7.4; physiological conditions of pH and temperature. Here is the method:
Dynamic light scattering: One milliliter of 1 mg/ml CLE diluted in 10 mm PBS, pH 7.4 was used to evaluate the dynamic light scattering at different temperatures of 5, 15, 25, 35 and 37° C. Hydrodynamic diameter of CLE was determined using the Zed ziser nano series (Mc Malvern, USA).

In a further data set the test system is IFN-gamma. On the set-up: species or system BALB/c mice. The note with it: mouse, in vivo.

Several values for one entry are separate records, joined by “and”; a condition that tells them apart may be missing. Equal entries are not always repeated. Ends that are not written are not given here.

For “CLE: 20 amino acid common linear epitope of ETEC CFA/I fimbria, amino acids 33 to 52, with terminal cysteine in position 53 (YSPASKTFESYRVMTQVHTC; not fully specified; also: disulfide at Cys20, partner not given here; listed as Escherichia coli)”, in the data set on strain H10407 of ETEC, the “positive coprocultures (excretion of ETEC)” value is 100% and 50%; the “presence of diarrhea after the infection with ETEC” value was “change of consistency of the feces”. In the data set on T CD4+ lymphocytes, the “increase of T CD4+ lymphocytes with regard to control group” value is given as “about 2 fold” and the “response of T CD4+ lymphocytes” value is given as “slightly higher”. Also, the “response of T CD8+ lymphocytes” value in the data set on T CD8+ lymphocytes is listed as “slightly higher”. For the same substance, in the data set on IL-4, the “increase of IL-4 production compared to the control group” value was “about 2.6 times”. Besides, the “increase of IL-10 compared to the control group” value with IL-10 was determined as 0.8 times. Also, the “children's sera that recognized the epitope” value in data set [1] is 100%. Besides, the “oligomeric structures formed (hydrodynamic diameter)” value in the data set “Dynamic light scattering” is recorded as “trimeric structures”.

CTB: in the data set on strain H10407 of ETEC, the “positive coprocultures (excretion of ETEC)” value is 100% and 50%; the “presence of diarrhea after the infection with ETEC” value was “inconsistency of feces up to the third day”. In the data set with T CD4+ lymphocytes, the “increase of T CD4+ lymphocytes relative to the control” value is 0.4 times. Further, the “response of T CD8+ lymphocytes” value with T CD8+ lymphocytes was “very similar to the control group”. For the same substance, the “response of INF-gamma” value with IFN-gamma was “considerable response”.
